Calls of active or inactive are those of the source. The rule behind the calls is not given here.
Legend:
[1] = target: T1, High affinity cAMP-specific and IBMX-insensitive 3',5'-cyclic phosphodiesterase 8A (Homo sapiens, UniProt O60658); assay: Inhibition of PDE8A1 (480 to 820 residues) (unknown origin) expressed in Escherichia coli BL21 using [3H]-cAMP as substrate measured for 15 mins by liquid scintillation counter method
[2] = target: High affinity cGMP-specific 3',5'-cyclic phosphodiesterase 9A (Homo sapiens, UniProt O76083); assay: Inhibition of PDE9A2 (181 to 506 residues) (unknown origin) expressed in Escherichia coli BL21 using [3H]-cGMP as substrate measured for 15 mins by liquid scintillation counter method
[3] = target: Dual specificity calcium/calmodulin-dependent 3',5'-cyclic nucleotide phosphodiesterase 1B (Homo sapiens, UniProt Q01064); assay: Inhibition of PDE1B (10 to 487 residues) (unknown origin) expressed in Escherichia coli BL21 using [3H]-cGMP as substrate measured for 15 mins by liquid scintillation counter method
Rattus norvegicus [4] = assay: Antifibrotic activity in bleomycin-induced Sprague-Dawley rat lung fibrosis model assessed as decrease in collagen I level at 2.5 to 5 mg/kg, ip administered daily for 28 days by Western blot analysis; type: functional, organism-based; details: dose 2.5-5 mg/kg, time 28.0 day
Rattus norvegicus [5] = assay: Antifibrotic activity in bleomycin-induced Sprague-Dawley rat lung fibrosis model assessed as increase in cAMP level at 2.5 to 5 mg/kg, ip administered daily for 28 days by ELISA analysis; type: functional, organism-based; details: dose 2.5-5 mg/kg, time 28.0 day
[6] = AUC (0 to t) in Sprague-Dawley rat at 5 mg/kg, iv; type: ADME, organism-based; set-up: dose 5 mg/kg, route iv; details: in vivo
Cytochrome P450 2C9 = Cytochrome P450 2C9 (Homo sapiens, UniProt P11712); assay: Inhibition of CYP2C9 in human liver microsomes at 25 uM in the presence of NADPH; type: ADME, Microsome
[7] = target: cGMP-specific 3',5'-cyclic phosphodiesterase (Homo sapiens, UniProt O76074); assay: Inhibition of PDE5A1 (535 to 860 residues) (unknown origin) expressed in Escherichia coli BL21 [3H]-cGMP as substrate measured for 15 mins by liquid scintillation counter method
[8] = AUC (0 to infinity) in Sprague-Dawley rat at 5 mg/kg, iv; type: ADME, organism-based; set-up: time infinity, dose 5 mg/kg, route iv; details: in vivo
Rattus norvegicus [9] = assay: Antifibrotic activity in bleomycin-induced Sprague-Dawley rat pulmonary fibrosis model assessed as decrease in end-expiratory pause at 2.5 to 5 mg/kg, ip administered daily for 28 days; type: functional, organism-based; details: dose 2.5-5 mg/kg, time 28.0 day
Rattus norvegicus [10] = assay: Antifibrotic activity in bleomycin-induced Sprague-Dawley rat lung fibrosis model assessed as decrease in fibronectin level at 2.5 to 5 mg/kg, ip administered daily for 28 days by Western blot analysis; type: functional, organism-based; details: dose 2.5-5 mg/kg, time 28.0 day
HLF [11] = assay: Antifibrotic activity in TGF-beta induced HLF cell assessed as suppression of alpha-SMA level at 10 uM incubated for 48 hrs by Western blot analysis; type: functional, cell-based; details: Homo sapiens
Rattus norvegicus [12] = assay: Antifibrotic activity in bleomycin-induced Sprague-Dawley rat lung fibrosis model assessed as increase in cGMP level at 2.5 to 5 mg/kg, ip administered daily for 28 days by ELISA analysis; type: functional, organism-based; details: dose 2.5-5 mg/kg, time 28.0 day
[13] = MRT (0 to t) in Sprague-Dawley rat at 5 mg/kg, iv; type: ADME, organism-based; details: in vivo
[14] = Cmax in Sprague-Dawley rat at 5 mg/kg, iv; type: ADME, organism-based; set-up: dose 5 mg/kg, route iv; details: in vivo
[15] = target: cAMP and cAMP-inhibited cGMP 3',5'-cyclic phosphodiesterase 10A (Homo sapiens, UniProt Q9Y233); assay: Inhibition of PDE10A (449 to 770 residues) (unknown origin) expressed in Escherichia coli BL21 using [3H]-cAMP as substrate measured for 15 mins by liquid scintillation counter method
HLF [16] = assay: Antifibrotic activity in TGF-beta induced HLF cell assessed as suppression of FN level at 10 uM incubated for 48 hrs by Western blot analysis; type: functional, cell-based; details: Homo sapiens
Rattus norvegicus [17] = assay: Antifibrotic activity in bleomycin-induced Sprague-Dawley rat pulmonary fibrosis model assessed as decrease in enhanced pause at 150 mg/kg, po administered daily for 28 days; type: functional, organism-based; details: time 28.0 day
Rattus norvegicus [18] = assay: Antifibrotic activity in bleomycin-induced Sprague-Dawley rat pulmonary fibrosis model assessed as smaller lung foci at 5 mg/kg, ip administered daily for 28 days by H&E staining based histopathological analysis; type: functional, organism-based; details: time 28.0 day
Cytochrome P450 2C19 = Cytochrome P450 2C19 (Homo sapiens, UniProt P33261); assay: Inhibition of CYP2C19 in human liver microsomes at 25 uM in the presence of NADPH; type: ADME, Microsome
[19] = Half life in Sprague-Dawley rat at 5 mg/kg, iv; type: ADME, organism-based; details: in vivo
Rattus norvegicus [20] = assay: Antifibrotic activity in bleomycin-induced Sprague-Dawley rat lung fibrosis model assessed as reduced septal enlargement at 5 mg/kg, ip administered daily for 28 days by hematoxylin and eosin staining based histopathological analysis; type: functional, organism-based; details: time 28.0 day
[21] = target: Dual specificity calcium/calmodulin-dependent 3',5'-cyclic nucleotide phosphodiesterase 1A (Homo sapiens, UniProt P54750); assay: Inhibition of PDE1A (142 to 552 residues) (unknown origin) expressed in Escherichia coli BL21 measured for 15 mins by liquid scintillation counter method
[22] = target: T1, High affinity cAMP-specific and IBMX-insensitive 3',5'-cyclic phosphodiesterase 8A; assay: Inhibition of PDE8A (480 to 820 residues) (unknown origin) expressed in Escherichia coli BL21 using [3H]-cAMP as substrate at 10000 nM measured for 15 mins by liquid scintillation counter method
Rattus norvegicus [23] = assay: Antifibrotic activity in bleomycin-induced Sprague-Dawley rat pulmonary fibrosis model assessed as decrease in enhanced pause at 2.5 to 5 mg/kg, ip administered daily for 28 days; type: functional, organism-based; details: dose 2.5-5 mg/kg, time 28.0 day
Rattus norvegicus [24] = assay: Antifibrotic activity in bleomycin-induced Sprague-Dawley rat pulmonary fibrosis model assessed as increase in respiratory rate at 150 mg/kg, po administered daily for 28 days; type: functional, organism-based; details: time 28.0 day

T1 sequence (O60658 whole entry, the tested form may be a part): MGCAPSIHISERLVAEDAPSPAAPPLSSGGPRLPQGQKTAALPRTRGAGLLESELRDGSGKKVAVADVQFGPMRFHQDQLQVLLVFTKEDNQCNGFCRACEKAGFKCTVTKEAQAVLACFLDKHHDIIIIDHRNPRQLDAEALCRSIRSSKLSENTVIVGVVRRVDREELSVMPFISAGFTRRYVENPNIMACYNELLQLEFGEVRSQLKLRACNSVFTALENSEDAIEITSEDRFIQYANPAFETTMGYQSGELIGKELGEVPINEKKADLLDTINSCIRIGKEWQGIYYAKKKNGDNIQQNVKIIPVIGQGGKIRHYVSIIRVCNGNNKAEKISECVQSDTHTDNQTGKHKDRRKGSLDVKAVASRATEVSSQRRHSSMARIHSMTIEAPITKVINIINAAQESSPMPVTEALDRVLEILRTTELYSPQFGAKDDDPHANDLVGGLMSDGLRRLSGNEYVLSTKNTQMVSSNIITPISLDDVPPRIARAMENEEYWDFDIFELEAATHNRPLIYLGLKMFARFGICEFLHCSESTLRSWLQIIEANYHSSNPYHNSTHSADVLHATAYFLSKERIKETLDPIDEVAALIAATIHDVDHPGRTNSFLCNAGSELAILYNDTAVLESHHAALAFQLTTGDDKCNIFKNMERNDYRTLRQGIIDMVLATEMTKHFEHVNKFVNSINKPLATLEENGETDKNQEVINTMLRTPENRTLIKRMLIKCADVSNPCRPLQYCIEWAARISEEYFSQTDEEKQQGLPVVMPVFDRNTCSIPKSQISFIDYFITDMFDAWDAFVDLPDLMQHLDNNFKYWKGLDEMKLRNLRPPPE
Dual specificity calcium/calmodulin-dependent 3',5'-cyclic nucleotide phosphodiesterase 1A, sequence (P54750 whole entry, the tested form may be a part): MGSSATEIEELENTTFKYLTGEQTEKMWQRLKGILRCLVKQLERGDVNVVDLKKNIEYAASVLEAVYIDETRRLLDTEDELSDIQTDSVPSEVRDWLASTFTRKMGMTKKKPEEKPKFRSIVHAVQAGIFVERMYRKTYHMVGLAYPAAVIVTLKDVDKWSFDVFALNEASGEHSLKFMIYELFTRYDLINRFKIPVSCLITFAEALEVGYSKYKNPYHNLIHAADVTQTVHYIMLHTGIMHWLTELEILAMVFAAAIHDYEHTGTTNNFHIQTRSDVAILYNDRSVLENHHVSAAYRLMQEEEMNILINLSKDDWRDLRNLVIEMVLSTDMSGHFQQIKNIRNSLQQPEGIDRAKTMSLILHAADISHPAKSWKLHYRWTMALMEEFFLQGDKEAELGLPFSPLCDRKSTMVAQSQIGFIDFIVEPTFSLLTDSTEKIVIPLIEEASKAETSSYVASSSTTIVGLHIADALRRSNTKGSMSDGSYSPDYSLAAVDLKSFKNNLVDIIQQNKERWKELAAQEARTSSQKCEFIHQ
Cytochrome P450 2C9, sequence (P11712 whole entry, the tested form may be a part): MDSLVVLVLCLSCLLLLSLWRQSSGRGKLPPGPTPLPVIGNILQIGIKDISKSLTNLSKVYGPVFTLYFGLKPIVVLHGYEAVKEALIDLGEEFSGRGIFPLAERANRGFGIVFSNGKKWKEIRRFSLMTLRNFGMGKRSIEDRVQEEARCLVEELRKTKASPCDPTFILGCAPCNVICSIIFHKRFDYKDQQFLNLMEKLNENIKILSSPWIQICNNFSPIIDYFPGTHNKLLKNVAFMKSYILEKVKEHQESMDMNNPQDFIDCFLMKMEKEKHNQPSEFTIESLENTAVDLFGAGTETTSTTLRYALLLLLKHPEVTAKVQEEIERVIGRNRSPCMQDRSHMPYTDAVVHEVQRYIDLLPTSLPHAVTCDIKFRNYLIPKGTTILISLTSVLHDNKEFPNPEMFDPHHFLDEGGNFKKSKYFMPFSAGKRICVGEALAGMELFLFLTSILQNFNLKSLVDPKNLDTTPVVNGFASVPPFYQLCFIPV
cAMP and cAMP-inhibited cGMP 3',5'-cyclic phosphodiesterase 10A, sequence (Q9Y233 whole entry, the tested form may be a part): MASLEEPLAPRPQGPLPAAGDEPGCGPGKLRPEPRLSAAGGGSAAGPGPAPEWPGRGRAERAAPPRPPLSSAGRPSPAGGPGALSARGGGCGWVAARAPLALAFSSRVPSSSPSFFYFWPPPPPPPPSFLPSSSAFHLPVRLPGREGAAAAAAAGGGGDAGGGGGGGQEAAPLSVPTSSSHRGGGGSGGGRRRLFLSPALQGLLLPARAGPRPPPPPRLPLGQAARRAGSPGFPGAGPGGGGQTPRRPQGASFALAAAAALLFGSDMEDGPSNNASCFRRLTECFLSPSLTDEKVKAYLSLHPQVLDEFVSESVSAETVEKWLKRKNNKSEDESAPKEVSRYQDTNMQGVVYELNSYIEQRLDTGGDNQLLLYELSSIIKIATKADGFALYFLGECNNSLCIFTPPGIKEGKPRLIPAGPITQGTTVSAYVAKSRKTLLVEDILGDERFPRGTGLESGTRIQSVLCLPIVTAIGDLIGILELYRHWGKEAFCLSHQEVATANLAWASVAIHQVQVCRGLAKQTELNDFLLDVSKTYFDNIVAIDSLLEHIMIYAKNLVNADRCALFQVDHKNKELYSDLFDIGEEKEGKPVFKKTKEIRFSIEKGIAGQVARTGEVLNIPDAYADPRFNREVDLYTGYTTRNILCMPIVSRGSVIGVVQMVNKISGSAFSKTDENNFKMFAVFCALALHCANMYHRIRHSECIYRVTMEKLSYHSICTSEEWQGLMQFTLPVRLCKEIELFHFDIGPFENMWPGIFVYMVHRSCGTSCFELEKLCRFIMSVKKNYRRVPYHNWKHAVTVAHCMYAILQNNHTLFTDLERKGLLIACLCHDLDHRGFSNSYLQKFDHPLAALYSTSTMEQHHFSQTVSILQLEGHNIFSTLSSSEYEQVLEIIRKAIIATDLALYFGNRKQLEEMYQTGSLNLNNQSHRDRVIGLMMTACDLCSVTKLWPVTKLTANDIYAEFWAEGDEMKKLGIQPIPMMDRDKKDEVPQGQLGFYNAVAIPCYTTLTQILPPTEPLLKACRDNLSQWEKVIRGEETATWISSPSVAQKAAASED
High affinity cGMP-specific 3',5'-cyclic phosphodiesterase 9A, sequence (O76083 whole entry, the tested form may be a part): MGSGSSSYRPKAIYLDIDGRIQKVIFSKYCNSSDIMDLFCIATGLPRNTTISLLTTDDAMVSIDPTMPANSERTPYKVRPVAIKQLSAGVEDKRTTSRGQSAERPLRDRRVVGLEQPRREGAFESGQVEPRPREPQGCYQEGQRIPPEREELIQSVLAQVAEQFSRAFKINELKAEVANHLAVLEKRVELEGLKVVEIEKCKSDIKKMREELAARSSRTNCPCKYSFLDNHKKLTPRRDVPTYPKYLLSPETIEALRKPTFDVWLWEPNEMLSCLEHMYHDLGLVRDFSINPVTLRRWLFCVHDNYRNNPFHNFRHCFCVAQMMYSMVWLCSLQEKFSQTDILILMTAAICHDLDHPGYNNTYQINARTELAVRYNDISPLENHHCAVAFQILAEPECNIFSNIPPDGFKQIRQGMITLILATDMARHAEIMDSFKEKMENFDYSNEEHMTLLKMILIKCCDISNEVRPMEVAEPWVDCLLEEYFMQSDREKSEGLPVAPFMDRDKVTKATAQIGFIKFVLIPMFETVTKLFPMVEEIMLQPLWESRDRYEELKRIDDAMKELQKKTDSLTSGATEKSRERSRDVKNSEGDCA
Dual specificity calcium/calmodulin-dependent 3',5'-cyclic nucleotide phosphodiesterase 1B, sequence (Q01064 whole entry, the tested form may be a part): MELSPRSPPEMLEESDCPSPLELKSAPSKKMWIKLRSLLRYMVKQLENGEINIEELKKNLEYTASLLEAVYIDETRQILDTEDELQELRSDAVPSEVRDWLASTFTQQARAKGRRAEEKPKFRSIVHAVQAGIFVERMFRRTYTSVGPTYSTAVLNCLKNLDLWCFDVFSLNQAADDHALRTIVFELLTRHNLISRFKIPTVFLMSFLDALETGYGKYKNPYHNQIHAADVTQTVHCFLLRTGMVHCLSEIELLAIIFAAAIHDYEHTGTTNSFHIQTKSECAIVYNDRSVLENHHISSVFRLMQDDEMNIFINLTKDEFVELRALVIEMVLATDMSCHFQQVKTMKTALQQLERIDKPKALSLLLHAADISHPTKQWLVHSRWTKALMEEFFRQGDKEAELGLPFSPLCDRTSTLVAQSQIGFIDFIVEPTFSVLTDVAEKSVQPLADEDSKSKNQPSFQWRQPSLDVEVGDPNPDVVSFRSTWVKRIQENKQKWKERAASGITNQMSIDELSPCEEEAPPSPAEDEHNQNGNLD
Cytochrome P450 2C19, sequence (P33261 whole entry): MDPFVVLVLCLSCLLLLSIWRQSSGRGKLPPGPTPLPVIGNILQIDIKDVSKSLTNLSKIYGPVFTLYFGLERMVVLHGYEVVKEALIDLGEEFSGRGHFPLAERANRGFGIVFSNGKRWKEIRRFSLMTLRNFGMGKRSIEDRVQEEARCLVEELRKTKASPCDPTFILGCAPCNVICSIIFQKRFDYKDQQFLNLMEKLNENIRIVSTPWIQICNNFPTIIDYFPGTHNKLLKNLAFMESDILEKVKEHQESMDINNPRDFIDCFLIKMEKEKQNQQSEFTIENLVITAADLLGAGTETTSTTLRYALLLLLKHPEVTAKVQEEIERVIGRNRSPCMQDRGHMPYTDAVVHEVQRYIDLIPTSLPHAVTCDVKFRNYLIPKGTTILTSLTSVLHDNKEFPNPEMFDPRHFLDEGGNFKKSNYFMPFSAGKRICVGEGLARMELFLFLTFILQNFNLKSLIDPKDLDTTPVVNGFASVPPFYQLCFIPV

Molecule `CC1=C(C(=O)O[C@H](C)c2ccccc2)C(c2ccc3c(cnn3C)c2)C(C(=O)O[C@H](C)c2ccccc2)=C(C)N1` has an IC50 [1] greater than 10 µM, an IC50 [2] greater than 10 µM and an IC50 [3] of 0.354 µM. The Activity (Rattus norvegicus [4]) was “Active”, the Activity (Rattus norvegicus [5]) was “Active” and the AUC(0-t) [6] was 4560 ng·h/mL. It also gave an IC50 (Cytochrome P450 2C9) of 4.6 µM, an IC50 [7] of 1.81 µM and an AUC(0-inf) [8] of 4590 ng·h/mL. For the same molecule, the Activity (Rattus norvegicus [9]) was “Active”, the Activity (Rattus norvegicus [10]) was “Active” and the Activity (HLF [11]) was “Active”. For the same molecule, the Activity (Rattus norvegicus [12]) was “Active”, the MRT last [13] was 3.44 h and the Cmax [14] was 2830 ng/mL. For the same molecule, the IC50 [15] was 1.31 µM, the Activity (HLF [16]) was “Active” and the Activity (Rattus norvegicus [17]) was “Active”. The Activity (Rattus norvegicus [18]) was “Active”, the IC50 (Cytochrome P450 2C19) was 3.9 µM and the half-life [19] was 3.67 h. For the same molecule, the Activity (Rattus norvegicus [20]) was “Active”, the IC50 [21] was 0.145 µM and the inhibition [22] was less than 50%. For the same molecule, the Activity (Rattus norvegicus [23]) was “Active” and the Activity (Rattus norvegicus [24]) was “Active”.
